Source: patent US8518953B2, “Aminopyrimidines useful as inhibitors of protein kinases” (Vertex Pharmaceuticals Incorporated, priority 2007, dated 2013)

Tested on: human umbilical vein endothelial cells (HUVEC)
Assay: In Vitro Model of Angiogenesis Using HUVEC and Skin Fibroblasts
Assay type: cell-based
Settings: HUVEC cultures
Excerpt: Compounds are screened for the ability to enhance angiogenesis in human umbilical vein endothelial cells (HUVEC). This method, adapted from Nakatsu et al. Microvas. Res. 2003, describes a protocol that recapitulates the major events essential for new vessel growth: budding, cell migration, cell proliferation, lumen formation, branching, and anastomosis. HUVEC are used between P3 and P4. HUVEC are mixed with dextran coated cytodex 3 micro-carriers (Amersham Pharmacia) at a concentration of 400 HUVEC per bead in 1 ml of EGM-2 (2% FBS) medium (Clonetics). Beads with cells are then shaken gently every 20 min for 4 hr at 37° C. and 5% CO2. After incubating, beads with cells are transferred to a T-25 tissue culture flask and left for 12-16 hr in 5 ml of EGM-2 at 37° C. 5% CO2. The following day beads with cells are washed three times with EGM-2 and re-suspended at a concentration of 200 cell-coated beads/ml in 2.5 mg/ml of fibrinogen (Sigma) with 0.15 U/ml of aprotinin (Sigma) at a pH of 7.4. 500 ul of fibrinogen/bead solution is then added to 0.625 U of thrombin (Sigma) in one well of a 24 well tissue culture plate. Fibrinogen/Bead solution is allowed to clot for 5 min at room temperature and then at 37° C. 5% CO2 for 20 min. 1 ml of EGM-2 with 0.15 U/ml of aprotinin is then added to each well and equilibrated with the fibrin clot for 30 min at 37° C. and 5% CO2. Next, media is removed from the well and replaced with 1 ml of fresh medium. 20,000 skin fibroblasts (SF ATCC Detroit 551) are plated on top of the clot and medium is changed every other day. […] Angiogenesis is scored by quantification of images captured on an inverted microscope at 10× and 20× magnification for vessel length, number of vessels and branches per bead using NIH Image J software. […] YFP positive HUVEC are then cultured as described above and quantification of vessel formation is determined by calculating the area under the threshold fluorescence using NIH Image J software. In both cases, enhanced angiogenesis is determined by comparing compound treated cultures with a DMSO control culture at the same time point.

[1] = concentrations that have been shown to induce β-catenin

For `Cc1nc(-c2ccccc2Cl)nc(Nc2n[nH]c3ncc(F)cc23)c1C` [Compound I-1, N-(2-(2-chlorophenyl)-5,6-dimethylpyrimidin-4-yl)-5-fluoro-1H-pyrazolo[3,4-b]pyridin-3-amine], the “vessel and network formation” value (10 nM, 7 days) was “increase vessel and network formation”, the cell proliferation [1] was “increased cell proliferation was observed” and the vessel formation [1] was “vessel formation was inhibited”.
